{
  "source": "patent US20260069708A1",
  "about": "(priority 2022, published 2026)",
  "origin": "cited, not measured here",
  "conditions": "reportedly",
  "data": [
    {"smiles": "COc1cccc2c1C(=O)c1c(O)c3c(c(O)c1C2=O)C[C@@](O)(C(=O)CO)C[C@@H]3O[C@H]1C[C@H](N)[C@H](O)[C@H](C)O1", "note": "[Dox, doxorubicin]", "values": [
      {"measurement": "fold lower IC50 than irinotecan", "result": "10-100 fold"}
    ]}
  ]
}
